According to patent publication US9242984B2, “Pyrazolyl derivatives as Syk inhibitors” (Merck Sharp & Dohme Corp., priority 2012, dated 2016):

biological target: T1, recombinant human Syk (GST-hSyk fusion protein) (Homo sapiens, UniProt P43405); assay: Homogeneous Time-Resolved Fluorescence (HTRF) assay for the recombinant human Syk enzyme; type: biochemical; settings: 10-dose titration, 25 μM ATP; read-out: rhSYK IC50
T1 construct: purchased Carna Biosciences 08-176
Description: Syk inhibition may be determined using the following assay protocol:
Homogeneous Time-Resolved Fluorescence (HTRF) Assay for the Recombinant Human Syk Enzyme:
A recombinant GST-hSyk fusion protein was used to measure potency of compounds to inhibit human Syk activity. The recombinant human GST-Syk (Carna Biosciences #08-176) (5 pM final concentration) was incubated with various concentrations of the inhibitor diluted in DMSO (0.1% final concentration) for 10 minutes at room temperature in 15 mM Tris-HCl (pH 7.5), 0.01% tween 20, 2 mM DTT in 384 well plate format. To initiate the reaction the biotinylated substrate peptide (250 nM final concentration) that contains the phosphorylation site for Syk was added with magnesium (5 mM final concentration) and ATP (25 μM final concentration). Final volume of the reaction was 10 μL. Phosphorylation of the peptide was allowed to proceed for 45 minutes at room temperature. To quench the reaction and detect the phosphorylated product, 2 nM of a Europium-anti-phosphotyrosine antibody (Perkin Elmer #AD0161) and 70 nM SA-APC (Perkin-Elmer #CR130-100) were added together in 15 mM Tris pH 7.5, 40 mM EDTA, 0.01% tween 20. Final volume of the quenching solution was 10 μL. The resulting HTRF signal was measured after 30 minutes on an EnVision (Perkin-Elmer) reader using a time-resolved fluorescence protocol. IC50 was determined following 10-dose titration (10 μM to 0.508 nM) and four parameter logistic curve fitting using the Merck Assay Data Analyzer. The rhSyk activity (IC50) is expressed as +++(100 nM or less), ++(between 100 and 1000 nM), +(between 1 and 10 μM).

| Compound | IC50 |
| --- | --- |
| Cc1cc(Nc2nccc(C(F)F)n2)cc(-c2cnn(C3CCC(O)C3(C)O)c2)c1 (stereo not drawn) [Example 22.13, 5-[4-(3-{[4-(difluoromethyl)pyrimidin-2-yl]amino}-5-methylphenyl)-1H-pyrazol-1-yl]-1-methylcyclopentane-1,2-diol] | 0.0036 µM |

same assay, conditions: IC50 class; 10-dose titration, 25 μM ATP; read-out: rhSYK Activity

| Compound | IC50 |
| --- | --- |
| Cc1cc(Nc2nccc(C(F)(F)F)n2)cc(-c2cnn(CC(=O)NC(C)(C)C)c2)c1 [Example 3.8, N-tert-butyl-2-[4-(3-methyl-5-{[4-(trifluoromethyl)pyrimidin-2-yl]amino}-phenyl)-1H-pyrazol-1-yl]acetamide] | ≤ 0.1 µM |
| Cc1cc(Nc2ncccn2)cc(-c2cnn(Cc3ccc(O)cc3)c2)c1 [Example 2.58, 4-({4-[3-methyl-5-(pyrimidin-2-ylamino)phenyl]-1H-pyrazol-1-yl}methyl)phenol] | ≤ 0.1 µM |
| Cc1cc(Nc2nccc(C(C)C)n2)cc(-c2cnn(C[C@H](O)C(N)=O)c2)c1 [Example 6.9, (2S)-2-hydroxy-3-[4-(3-methyl-5-{[4-(1-methyl-ethyl)pyrimidin-2-yl]-amino}phenyl)-1H-pyrazol-1-yl]propanamide] | ≤ 0.1 µM |
| OC1(Cn2cc(-c3cccc(Nc4nccc(C(F)F)n4)c3)cn2)CCC1 [Example 29.4, 1-{[4-(3-{[4-(difluoromethyl)pyrimidin-2-yl]amino}phenyl)-1H-pyrazol-1-yl]methyl}cyclobutanol] | ≤ 0.1 µM |
| Cc1cc(Nc2nccc(C(F)(F)F)n2)cc(-c2cnn(C3CCCC(O)C3O)c2)c1 (stereo not drawn) [Example 10.2, 3-[4-(3-methyl-5-{[4-(trifluorometh-yl)pyrimidin-2-yl]amino}phen-yl)-1H-pyrazol-1-yl]cyclohexane-1,2-diol] | ≤ 0.1 µM |
| Cc1cc(Nc2nccc(C(F)(F)F)n2)cc(-c2cn[nH]c2)n1 [Example 1.44, N-[2-methyl-6-(1H-pyrazol-4-yl)pyridin-4-yl]-4-(trifluoro-methyl)pyrimidin-2-amine] | 0.1 to 1 µM |
| Cc1cc(Nc2ncc(F)c(C(F)F)n2)cc(-c2cnn(CC3OC(=O)NC3C)c2)c1 (single isomer, unassigned) [Example 23.21, 5-{[4-(3-{[4-(difluoromethyl)-5-fluoropyrimidin-2-yl]amino}-5-methylphenyl)-1H-pyrazol-1-yl]methyl}-4-methyl-1,3-oxazolidin-2-one] | ≤ 0.1 µM |
| Cc1cc(Nc2nccc(C(F)(F)F)n2)cc(-c2cnn(C[C@]3(O)CC[C@@H](C(=O)O)CC3)c2)c1 [Example 5.5, cis-4-hydroxy-4-{[4-(3-methyl-5-{[4-(trifluoro-methyl)pyrimidin-2-yl]amino}-phenyl)-1H-pyrazol-1-yl]methyl}-cyclo-hexanecarboxylic acid] | ≤ 0.1 µM |
| Cc1cc(Nc2nccc(C(F)F)n2)cc(-c2cnn(C3CCC(O)C3(C)O)c2)c1 (stereo not drawn) [Example 22.13, 5-[4-(3-{[4-(difluoromethyl)pyrimidin-2-yl]amino}-5-methylphenyl)-1H-pyrazol-1-yl]-1-methylcyclopentane-1,2-diol] | ≤ 0.1 µM |
| 4-{[4-(6-{[4-(difluoromethyl)pyridin-2-yl]amino}-4-methylpyridin-2-yl)-1H-pyrazol-1-yl)methyl}pyrrolidin-2-one [Example 1.37] | ≤ 0.1 µM |
| Cc1cc(Nc2nccc(C(F)(F)F)n2)cc(-c2cnn(C3CCC(C(N)=O)CC3)c2)c1 (stereo not drawn) [Example 8.6, 4-[4-(3-methyl-5-{[4-(trifluorometh-yl)pyrimidin-2-yl]amino}-phenyl)-1H-pyrazol-1-yl]cyclohexane-carboxamide] | ≤ 0.1 µM |
| COc1nc(Nc2cc(C)cc(-c3cnn(C[C@@H](O)C(=O)O)c3)c2)ncc1Cl [Example 11.9, (2R)-3-(4-{3-[(5-chloro-4-methoxy-pyrimidin-2-yl)-amino]-5-methyl-phenyl}-1H-pyrazol-1-yl)-2-hydroxy-propanoic acid] | ≤ 0.1 µM |
| CCOC(=O)CCc1cnn(-c2cc(C)cc(Nc3nccc(C4CC4)n3)c2)c1 [Example 19.4, Ethyl 3-(1-{3-[(4-cyclopropylpyrimidin-2-yl)amino]-5-methylphenyl}-1H-pyrazol-4-yl)propanoate] | 0.1 to 1 µM |
| Cc1cc(Nc2nccc(C(F)(F)F)n2)cc(-c2cnn(CC3CNC(=O)O3)c2)c1 (single isomer, unassigned) [Example 2.4, 5-{[4-(3-methyl-5-{[4-(trifluoromethyl)-pyrimidin-2-yl]-amino}phenyl)-1H-pyrazol-1-yl]methyl}-1,3-oxazolidin-2-one] | ≤ 0.1 µM |
